Reference: ChEMBL document CHEMBL3352227, “Synthesis, antimycobacterial and antibacterial evaluation of l-[(1R, 2S)-2-fluorocyclopropyl]fluoroquinolone derivatives containing an oxime functional moiety” (Eur J Med Chem, 2014)
Values after ≈ are worked out from the molar mass of the structure shown.

Legend:
Type in all cases: functional
[1] = system: Staphylococcus aureus; assay: Antibacterial activity against methicillin-sensitive Staphylococcus aureus 12-1 after 18 to 24 hrs by standard twofold serial dilution method
[2] = system: Streptococcus pneumoniae; assay: Antibacterial activity against Streptococcus pneumoniae ATCC 49619 after 18 to 24 hrs by standard twofold serial dilution method
[3] = system: Staphylococcus epidermidis; assay: Antibacterial activity against methicillin-sensitive Staphylococcus epidermidis 12-6 after 18 to 24 hrs by standard twofold serial dilution method
[4] = system: Pseudomonas aeruginosa; assay: Antibacterial activity against Pseudomonas aeruginosa 12-12 after 18 to 24 hrs by standard twofold serial dilution method
[5] = system: Staphylococcus epidermidis; assay: Antibacterial activity against methicillin-sensitive Staphylococcus epidermidis 12-1 after 18 to 24 hrs by standard twofold serial dilution method
[6] = system: Escherichia coli; assay: Antibacterial activity against extended-spectrum beta-lactamase producing Escherichia coli 12-15 after 18 to 24 hrs by standard twofold serial dilution method
[7] = system: Staphylococcus epidermidis; assay: Antibacterial activity against methicillin-sensitive Staphylococcus epidermidis 12-3 after 18 to 24 hrs by standard twofold serial dilution method
[8] = system: Klebsiella pneumoniae; assay: Antibacterial activity against extended-spectrum beta-lactamase producin Klebsiella pneumoniae 12-4 after 18 to 24 hrs by standard twofold serial dilution method
[9] = system: Escherichia coli; assay: Antibacterial activity against extended-spectrum beta-lactamase producing Escherichia coli 12-3 after 18 to 24 hrs by standard twofold serial dilution method
[10] = system: Staphylococcus aureus; assay: Antibacterial activity against methicillin-sensitive Staphylococcus aureus 12-4 after 18 to 24 hrs by standard twofold serial dilution method
[11] = system: Streptococcus pneumoniae; assay: Antibacterial activity against Streptococcus pneumoniae 12-18 after 18 to 24 hrs by standard twofold serial dilution method
[12] = system: Escherichia coli; assay: Antibacterial activity against Escherichia coli ATCC 25922 after 18 to 24 hrs by standard twofold serial dilution method
[13] = system: Klebsiella pneumoniae; assay: Antibacterial activity against Klebsiella pneumoniae 12-2 after 18 to 24 hrs by standard twofold serial dilution method
[14] = system: Staphylococcus epidermidis; assay: Antibacterial activity against methicillin-sensitive Staphylococcus epidermidis 12-8 after 18 to 24 hrs by standard twofold serial dilution method
[15] = system: Klebsiella pneumoniae; assay: Antibacterial activity against extended-spectrum beta-lactamase producin Klebsiella pneumoniae 12-14 after 18 to 24 hrs by standard twofold serial dilution method
[16] = system: Staphylococcus epidermidis; assay: Antibacterial activity against methicillin-resistant Staphylococcus epidermidis 12-6 after 18 to 24 hrs by standard twofold serial dilution method
[17] = system: Staphylococcus aureus; assay: Antibacterial activity against methicillin-resistant Staphylococcus aureus 12-4 after 18 to 24 hrs by standard twofold serial dilution method
[18] = system: Klebsiella pneumoniae; assay: Antibacterial activity against extended-spectrum beta-lactamase producin Klebsiella pneumoniae 12-7 after 18 to 24 hrs by standard twofold serial dilution method
[19] = system: Staphylococcus aureus; assay: Antibacterial activity against Staphylococcus aureus ATCC 25923 after 18 to 24 hrs by standard twofold serial dilution method
[20] = system: Staphylococcus epidermidis; assay: Antibacterial activity against methicillin-resistant Staphylococcus epidermidis 12-1 after 18 to 24 hrs by standard twofold serial dilution method
[21] = system: Escherichia coli; assay: Antibacterial activity against Escherichia coli 12-1 after 18 to 24 hrs by standard twofold serial dilution method
[22] = system: Staphylococcus aureus; assay: Antibacterial activity against methicillin-resistant Staphylococcus aureus 12-5 after 18 to 24 hrs by standard twofold serial dilution method
[23] = system: Pseudomonas aeruginosa; assay: Antibacterial activity against Pseudomonas aeruginosa 12-14 after 18 to 24 hrs by standard twofold serial dilution method
[24] = system: Staphylococcus aureus; assay: Antibacterial activity against methicillin-sensitive Staphylococcus aureus 12-5 after 18 to 24 hrs by standard twofold serial dilution method
[25] = system: Klebsiella pneumoniae; assay: Antibacterial activity against Klebsiella pneumoniae 12-4 after 18 to 24 hrs by standard twofold serial dilution method
[26] = system: Escherichia coli; assay: Antibacterial activity against extended-spectrum beta-lactamase producing Escherichia coli 12-2 after 18 to 24 hrs by standard twofold serial dilution method
[27] = system: Staphylococcus aureus; assay: Antibacterial activity against methicillin-resistant Staphylococcus aureus 12-2 after 18 to 24 hrs by standard twofold serial dilution method
[28] = system: Klebsiella pneumoniae; assay: Antibacterial activity against extended-spectrum beta-lactamase producin Klebsiella pneumoniae 12-3 after 18 to 24 hrs by standard twofold serial dilution method
[29] = system: Klebsiella pneumoniae; assay: Antibacterial activity against Klebsiella pneumoniae 12-1 after 18 to 24 hrs by standard twofold serial dilution method
[30] = system: Escherichia coli; assay: Antibacterial activity against extended-spectrum beta-lactamase producing Escherichia coli 12-14 after 18 to 24 hrs by standard twofold serial dilution method
[31] = system: Mycobacterium tuberculosis; assay: Antimycobacterial activity against Mycobacterium tuberculosis H37Rv ATCC 27294 by MABA method
[32] = system: Staphylococcus aureus; assay: Antibacterial activity against methicillin-sensitive Staphylococcus aureus 12-2 after 18 to 24 hrs by standard twofold serial dilution method

Row | Structure (SMILES) | MIC [1] | MIC [2] | MIC [3] | MIC [4] | MIC [5] | MIC [6] | MIC [7] | MIC [8] | MIC [9] | MIC [10] | MIC [11] | MIC [12] | MIC [13] | MIC [14] | MIC [15] | MIC [16] | MIC [17] | MIC [18] | MIC [19] | MIC [20] | also measured
1 | CCO/N=C1/CN(c2c(F)cc3c(=O)c(C(=O)O)cn([C@@H]4C[C@@H]4F)c3c2OC)CC1CN (some centres undefined) | 0.25 µg/mL (≈ 0.555 µM) | 4 µg/mL (≈ 8.88 µM) | 0.25 µg/mL (≈ 0.555 µM) | 8 µg/mL (≈ 17.8 µM) | 0.25 µg/mL (≈ 0.555 µM) | > 128 µg/mL | 2 µg/mL (≈ 4.44 µM) | 128 µg/mL (≈ 284 µM) | > 128 µg/mL | 0.25 µg/mL (≈ 0.555 µM) | 4 µg/mL (≈ 8.88 µM) | 4 µg/mL (≈ 8.88 µM) | 4 µg/mL (≈ 8.88 µM) | 16 µg/mL (≈ 35.5 µM) | > 128 µg/mL | > 128 µg/mL | 128 µg/mL (≈ 284 µM) | 32 µg/mL (≈ 71 µM) | 0.015 µg/mL (≈ 0.0333 µM) | 32 µg/mL (≈ 71 µM) | MIC [21]: 16 µg/mL (≈ 35.5 µM); MIC [22]: 64 µg/mL (≈ 142 µM); MIC [23]: 128 µg/mL (≈ 284 µM); MIC [24]: 0.25 µg/mL (≈ 0.555 µM); MIC [25]: 4 µg/mL (≈ 8.88 µM); MIC [26]: > 128 µg/mL; MIC [27]: 128 µg/mL (≈ 284 µM); MIC [28]: > 128 µg/mL; MIC [29]: 4 µg/mL (≈ 8.88 µM); MIC [30]: > 128 µg/mL; MIC [31]: 32 µg/mL (≈ 71 µM); MIC [32]: 0.25 µg/mL (≈ 0.555 µM)
2 | CO/N=C1/CN(c2c(F)cc3c(=O)c(C(=O)O)cn([C@@H]4C[C@@H]4F)c3c2OC)[C@H]1CN | 0.125 µg/mL (≈ 0.296 µM) | 0.25 µg/mL (≈ 0.592 µM) | 0.125 µg/mL (≈ 0.296 µM) | 2 µg/mL (≈ 4.73 µM) | 0.125 µg/mL (≈ 0.296 µM) | 64 µg/mL (≈ 152 µM) | 0.125 µg/mL (≈ 0.296 µM) | 16 µg/mL (≈ 37.9 µM) | 32 µg/mL (≈ 75.8 µM) | 0.06 µg/mL (≈ 0.142 µM) | 2 µg/mL (≈ 4.73 µM) | 0.25 µg/mL (≈ 0.592 µM) | 0.5 µg/mL (≈ 1.18 µM) | 2 µg/mL (≈ 4.73 µM) | 64 µg/mL (≈ 152 µM) | 2 µg/mL (≈ 4.73 µM) | 8 µg/mL (≈ 18.9 µM) | 2 µg/mL (≈ 4.73 µM) | < 0.008 µg/mL | 2 µg/mL (≈ 4.73 µM) | MIC [21]: 2 µg/mL (≈ 4.73 µM); MIC [22]: 4 µg/mL (≈ 9.47 µM); MIC [23]: 16 µg/mL (≈ 37.9 µM); MIC [24]: 0.125 µg/mL (≈ 0.296 µM); MIC [25]: 0.5 µg/mL (≈ 1.18 µM); MIC [26]: 64 µg/mL (≈ 152 µM); MIC [27]: 8 µg/mL (≈ 18.9 µM); MIC [28]: 64 µg/mL (≈ 152 µM); MIC [29]: 0.5 µg/mL (≈ 1.18 µM); MIC [30]: 128 µg/mL (≈ 303 µM); MIC [31]: 0.5 µg/mL (≈ 1.18 µM); MIC [32]: 0.125 µg/mL (≈ 0.296 µM)
